Tests used:
Type in all cases: functional
[1] = test system: Mutarda arvensis; assay: Herbicidal activity against Sinapis arvensis after 3 weeks by post-emergence greenhouse test; parameters: concentration or dose not given beside the values
[2] = test system: Stellaria media; assay: Herbicidal activity against Stellaria media after 3 weeks by post-emergence greenhouse test; parameters: concentration or dose not given beside the values
[3] = test system: Triticum aestivum; assay: Phytotoxic activity against Triticum aestivum (wheat) after 4 weeks by pre-emergence greenhouse test
[4] = test system: Alopecurus myosuroides; assay: Herbicidal activity against Alopecurus myosuroides after 4 weeks by pre-emergence greenhouse test; parameters: concentration or dose not given beside the values
[5] = test system: Alopecurus myosuroides; assay: Herbicidal activity against Alopecurus myosuroides after 3 weeks by post-emergence greenhouse test; parameters: concentration or dose not given beside the values
[6] = test system: Chenopodium album; assay: Herbicidal activity against Chenopodium album after 4 weeks by pre-emergence greenhouse test; parameters: concentration or dose not given beside the values
[7] = test system: Avena fatua; assay: Herbicidal activity against Avena fatua after 3 weeks by post-emergence greenhouse test; parameters: concentration or dose not given beside the values
[8] = test system: Bromus tectorum; assay: Herbicidal activity against Bromus tectorum after 4 weeks by pre-emergence greenhouse test; parameters: concentration or dose not given beside the values
[9] = test system: Chenopodium album; assay: Herbicidal activity against Chenopodium album after 3 weeks by post-emergence greenhouse test; parameters: concentration or dose not given beside the values
[10] = test system: Stellaria media; assay: Herbicidal activity against Stellaria media after 4 weeks by pre-emergence greenhouse test; parameters: concentration or dose not given beside the values
[11] = test system: Matricaria chamomilla; assay: Herbicidal activity against Matricaria chamomilla after 3 weeks by post-emergence greenhouse test; parameters: concentration or dose not given beside the values
[12] = test system: Triticum aestivum; assay: Phytotoxic activity against Triticum aestivum (wheat) after 3 weeks by post-emergence greenhouse test; parameters: concentration or dose not given beside the values
[13] = test system: Mutarda arvensis; assay: Herbicidal activity against Sinapis arvensis after 4 weeks by pre-emergence greenhouse test; parameters: concentration or dose not given beside the values
[14] = test system: Avena fatua; assay: Herbicidal activity against Avena fatua after 4 weeks by pre-emergence greenhouse test; parameters: concentration or dose not given beside the values
[15] = test system: Bromus tectorum; assay: Herbicidal activity against Bromus tectorum after 3 weeks by post-emergence greenhouse test; parameters: concentration or dose not given beside the values
[16] = test system: Matricaria chamomilla; assay: Herbicidal activity against Matricaria chamomilla after 4 weeks by pre-emergence greenhouse test; parameters: concentration or dose not given beside the values
[17] = test system: Mutarda arvensis; assay: Herbicidal activity against Sinapis arvensis at 250 g/ha after 3 weeks by post-emergence greenhouse test
[18] = test system: Avena fatua; assay: Herbicidal activity against Avena fatua at 500 g/ha after 3 weeks by post-emergence greenhouse test
[19] = test system: Alopecurus myosuroides; assay: Herbicidal activity against Alopecurus myosuroides at 250 g/ha after 3 weeks by post-emergence greenhouse test
[20] = test system: Avena fatua; assay: Herbicidal activity against Avena fatua at 250 g/ha after 3 weeks by post-emergence greenhouse test
[21] = test system: Triticum aestivum; assay: Phytotoxic activity against Triticum aestivum (wheat) at 250 g/ha after 3 weeks by post-emergence greenhouse test
[22] = test system: Matricaria chamomilla; assay: Herbicidal activity against Matricaria chamomilla at 500 g/ha after 3 weeks by post-emergence greenhouse test
[23] = test system: Stellaria media; assay: Herbicidal activity against Stellaria media at 125 g/ha after 3 weeks by post-emergence greenhouse test
[24] = test system: Matricaria chamomilla; assay: Herbicidal activity against Matricaria chamomilla at 250 g/ha after 3 weeks by post-emergence greenhouse test
[25] = test system: Bromus tectorum; assay: Herbicidal activity against Bromus tectorum at 500 g/ha after 3 weeks by post-emergence greenhouse test
[26] = test system: Bromus tectorum; assay: Herbicidal activity against Bromus tectorum at 250 g/ha after 3 weeks by post-emergence greenhouse test
[27] = test system: Stellaria media; assay: Herbicidal activity against Stellaria media at 500 g/ha after 3 weeks by post-emergence greenhouse test
[28] = test system: Alopecurus myosuroides; assay: Herbicidal activity against Alopecurus myosuroides at 500 g/ha after 3 weeks by post-emergence greenhouse test
[29] = test system: Mutarda arvensis; assay: Herbicidal activity against Sinapis arvensis at 125 g/ha after 3 weeks by post-emergence greenhouse test
[30] = test system: Stellaria media; assay: Herbicidal activity against Stellaria media at 250 g/ha after 3 weeks by post-emergence greenhouse test
[31] = test system: Matricaria chamomilla; assay: Herbicidal activity against Matricaria chamomilla at 125 g/ha after 3 weeks by post-emergence greenhouse test
[32] = test system: Triticum aestivum; assay: Phytotoxic activity against Triticum aestivum (wheat) at 500 g/ha after 3 weeks by post-emergence greenhouse test
[33] = test system: Avena fatua; assay: Herbicidal activity against Avena fatua at 125 g/ha after 3 weeks by post-emergence greenhouse test
[34] = test system: Bromus tectorum; assay: Herbicidal activity against Bromus tectorum at 125 g/ha after 3 weeks by post-emergence greenhouse test
[35] = test system: Alopecurus myosuroides; assay: Herbicidal activity against Alopecurus myosuroides at 125 g/ha after 3 weeks by post-emergence greenhouse test
[36] = test system: Triticum aestivum; assay: Phytotoxic activity against Triticum aestivum (wheat) at 125 g/ha after 3 weeks by post-emergence greenhouse test
[37] = test system: Mutarda arvensis; assay: Herbicidal activity against Sinapis arvensis at 500 g/ha after 3 weeks by post-emergence greenhouse test
[38] = test system: Avena fatua; assay: Herbicidal activity against Avena fatua at 400 g/ha after 3 weeks by post-emergence greenhouse test
[39] = test system: Matricaria chamomilla; assay: Herbicidal activity against Matricaria chamomilla at 25 g/ha after 3 weeks by post-emergence greenhouse test
[40] = test system: Bromus tectorum; assay: Herbicidal activity against Bromus tectorum at 400 g/ha after 3 weeks by post-emergence greenhouse test
[41] = test system: Matricaria chamomilla; assay: Herbicidal activity against Matricaria chamomilla at 400 g/ha after 3 weeks by post-emergence greenhouse test
[42] = test system: Alopecurus myosuroides; assay: Herbicidal activity against Alopecurus myosuroides at 400 g/ha after 3 weeks by post-emergence greenhouse test
[43] = test system: Chenopodium album; assay: Herbicidal activity against Chenopodium album at 100 g/ha after 3 weeks by post-emergence greenhouse test
[44] = test system: Triticum aestivum; assay: Phytotoxic activity against Triticum aestivum (wheat) at 25 g/ha after 3 weeks by post-emergence greenhouse test
[45] = test system: Mutarda arvensis; assay: Herbicidal activity against Sinapis arvensis at 400 g/ha after 3 weeks by post-emergence greenhouse test
[46] = test system: Matricaria chamomilla; assay: Herbicidal activity against Matricaria chamomilla at 100 g/ha after 3 weeks by post-emergence greenhouse test
[47] = test system: Mutarda arvensis; assay: Herbicidal activity against Sinapis arvensis at 25 g/ha after 3 weeks by post-emergence greenhouse test
[48] = test system: Stellaria media; assay: Herbicidal activity against Stellaria media at 100 g/ha after 3 weeks by post-emergence greenhouse test
[49] = test system: Triticum aestivum; assay: Phytotoxic activity against Triticum aestivum (wheat) at 400 g/ha after 3 weeks by post-emergence greenhouse test
[50] = test system: Chenopodium album; assay: Herbicidal activity against Chenopodium album at 25 g/ha after 3 weeks by post-emergence greenhouse test
[51] = test system: Chenopodium album; assay: Herbicidal activity against Chenopodium album at 400 g/ha after 3 weeks by post-emergence greenhouse test
[52] = test system: Bromus tectorum; assay: Herbicidal activity against Bromus tectorum at 100 g/ha after 3 weeks by post-emergence greenhouse test
[53] = test system: Alopecurus myosuroides; assay: Herbicidal activity against Alopecurus myosuroides at 100 g/ha after 3 weeks by post-emergence greenhouse test
[54] = test system: Avena fatua; assay: Herbicidal activity against Avena fatua at 25 g/ha after 3 weeks by post-emergence greenhouse test
[55] = test system: Mutarda arvensis; assay: Herbicidal activity against Sinapis arvensis at 100 g/ha after 3 weeks by post-emergence greenhouse test
[56] = test system: Triticum aestivum; assay: Phytotoxic activity against Triticum aestivum (wheat) at 100 g/ha after 3 weeks by post-emergence greenhouse test
[57] = test system: Avena fatua; assay: Herbicidal activity against Avena fatua at 100 g/ha after 3 weeks by post-emergence greenhouse test
[58] = test system: Bromus tectorum; assay: Herbicidal activity against Bromus tectorum at 25 g/ha after 3 weeks by post-emergence greenhouse test
[59] = test system: Stellaria media; assay: Herbicidal activity against Stellaria media at 400 g/ha after 3 weeks by post-emergence greenhouse test
[60] = test system: Alopecurus myosuroides; assay: Herbicidal activity against Alopecurus myosuroides at 25 g/ha after 3 weeks by post-emergence greenhouse test
[61] = test system: Stellaria media; assay: Herbicidal activity against Stellaria media at 25 g/ha after 3 weeks by post-emergence greenhouse test

CCSc1nc2ccccn2c1S(=O)(=O)NC(=O)Nc1nc(OC)cc(OC)n1
76%: Activity [1]
51%: Activity [4] | Activity [5] | Activity [11] | Activity [13]
88%: Activity [16]
0%: Phytotoxicity [3] | Activity [8] | Activity [10] | Activity [12] | Activity [14]
1%: Activity [2] | Activity [6] | Activity [7] | Activity [9] | Activity [15]

COc1cc(OC)nc(NC(=O)NS(=O)(=O)c2c(S(C)(=O)=O)nc3ccccn23)n1
1%: Activity [6] | Activity [7] | Activity [9] | Activity [12] | Activity [14]
76%: Activity [2] | Activity [4] | Activity [5] | Activity [8] | Activity [15]
100%: Activity [13]
51%: Activity [10]
88%: Activity [1] | Activity [11] | Activity [16]
0%: Phytotoxicity [3]

COc1cc(OC)nc(NC(=O)NS(=O)(=O)c2c([S+](C)[O-])nc3ccccn23)n1 (stereo not given)
0%: Activity [2] | Phytotoxicity [3] | Activity [4] | Activity [5] | Activity [6] | Activity [7] | Activity [8] | Activity [9] | Activity [10] | Activity [12] | Activity [14]
51%: Activity [13] | Activity [16]
1%: Activity [15]
76%: Activity [1] | Activity [11]

COc1cc(OC)nc(NC(=O)NS(=O)(=O)c2c(SC)nc3ccccn23)n1
88%: Activity [1] | Activity [16]
76%: Activity [11]
51%: Activity [6] | Activity [10]
0%: Phytotoxicity [3] | Activity [7] | Activity [8] | Activity [9] | Activity [12] | Activity [14]
1%: Activity [2] | Activity [4] | Activity [5] | Activity [13] | Activity [15]

CSc1nnc(C(C)(C)C)c(=O)n1N [METRIBUZIN]
100%: Activity [17] | Activity [22] | Activity [24] | Activity [27] | Activity [28] | Activity [29] | Activity [30] | Activity [37]
51%: Activity [19] | Activity [31] | Activity [35]
0%: Activity [33] | Phytotoxicity [36]
76%: Activity [18]
88%: Activity [23] | Activity [25]
1%: Activity [20] | Phytotoxicity [21] | Activity [26] | Phytotoxicity [32] | Activity [34]

CCS(=O)(=O)c1nc2ccccn2c1S(=O)(=O)NC(=O)Nc1nc(OC)cc(OC)n1 [SULFOSULFURON]
0%: Phytotoxicity [3] | Activity [38] | Phytotoxicity [44] | Phytotoxicity [49] | Activity [12] | Phytotoxicity [56]
88%: Activity [1] | Activity [2] | Activity [4] | Activity [39] | Activity [5] | Activity [40] | Activity [6] | Activity [41] | Activity [42] | Activity [7] | Activity [8] | Activity [45] | Activity [10] | Activity [46] | Activity [47] | Activity [48] | Activity [11] | Activity [52] | Activity [53] | Activity [54] | Activity [55] | Activity [13] | Activity [57] | Activity [15] | Activity [16] | Activity [58] | Activity [59] | Activity [60] | Activity [61]
1%: Activity [43] | Activity [50]
51%: Activity [9] | Activity [51] | Activity [14]

Reference: ChEMBL document CHEMBL3046418, “Synthesis and Herbicidal Activity of Sulfonylurea Compounds with Imidazo [1, 2-a] pyridine Moiety” (2001)
